Marks after values point to notes of the source that are not given here.
How the values were obtained:
[1] = tested on: Lettuce plants (Lactuca sativa L.); experiment: Nitrate concentration in lettuce leaves after foliar spray; type: in vivo; details: for decrease of leaves nitrate content: 20 micromolar, vs control; for Nitrate concentration in lettuce leaves: 20 micromolar spray with Tween 20; for time the decrease of leaf nitrate content is maintained after the treatment: lettuce, 20 micromolar foliar spray
Procedure: Lettuce plants (Lactuca sativa L.), were cultivated in pots containing an alkaline soil and receiving mineral fertilization including ammonium nitrate (NAC 27) in a greenhouse under controlled conditions (16 h light/8 h dark and 25° C.). Once the commercial size of the plants was reached, the plants were divided in three groups. The Control group (CT) was sprayed with water and a surfactant (Tween 20); the melatonin (M) group was sprayed with a solution of 20 micromolar of synthetic melatonin and the adjuvant; and the tryptophan group (Tr) was sprayed with a solution of 20 micromolar of biosynthetic tryptophan and the adjuvant. The plants were harvested 48 h and […] after foliar application at 12 am. Nitrate concentration in the leaves was determined in leaf water extract by colorimetric detection at 415 nm after reaction of nitrate with salicylic acid in acidic medium and the formation of nitrosalicylate. Each treatment and harvest had five plants.

[2] = tested on: French Bean plants (Phaseolus vulgaris); experiment: Nitrate concentration in bean leaves after soil application; type: in vivo; details: 20 micromolar total
Procedure: French Bean plants (Phaseolus vulgaris), were cultivated in pots containing a peat substrate and receiving mineral fertilization including 40 kg N/hectare by ammonium nitrate and 20 kg SO3/hectare by magnesium sulfate in a greenhouse under controlled conditions (16 h light/8 h dark and 25° C.). The fertilizers were brought to the surface of the pots after 10 days of culture.
Just after adding the fertilizers, the plants were divided in four groups. The experiment was arranged in a randomized complete block design with six replicates. The Control group (CT) was without any treatment; 3 groups were treated by addition of an aqueous solution of (1) synthetic melatonin (SM) (20 micromolar), (2) phytomelatonin (pM) (20 micromolar) from a Spirulina extract and (3) a combination of synthetic melatonin (10 micromolar), and phytomelatonin from a rich Spirulina extract (CM) (10 micromolar). Applications have been done in the soils 10 days after transplantation and one time every 7 days. Plants were harvested 6 weeks after transplanting and 2 weeks after the last treatment. Then leaves were dried and used for the determination of dry weight and nitrate content. Nitrate concentration in the leaves was determined by High Performance Ionic Chromatography. The results were expressed in mg NO3/g of dry matter.

[3] = harvest 48 h after foliar application, CT 1563
[4] = harvest 120 h after foliar application, CT 1452

SMILES | decrease of leaves nitrate content ([1]; 48 h after the treatment) | decrease of leaves nitrate content ([1]; 120 h after the treatment) | Nitrate concentration in lettuce leaves [1, 3] | Nitrate concentration in lettuce leaves [1, 4] | time the decrease of leaf nitrate content is maintained after the treatment [1] | decrease of nitrate content in bean leaves ([2]; 2 weeks after the last treatment, vs control) | Nitrate content in bean leaves ([2]; applied to soil every 7 days, harvest 2 weeks after last treatment, CT 2.47)
COc1ccc2[nH]cc(CCNC(C)=O)c2c1 [Melatonin, N-acetyl-5-methoxy tryptamine] | 53% | 50% | 738* mg kg^−1 fresh weight | 706* mg kg^−1 fresh weight | at least 5 days | 79% | 0.52* mg/g of dry weight
N[C@@H](Cc1c[nH]c2ccccc12)C(=O)O [tryptophan] | 50% | 39% | 780* mg kg^−1 fresh weight | 887* mg kg^−1 fresh weight | at least 5 days | – | –

Source: US20260076369A1, “USE OF MELATONIN AND/OR PRECURSOR THEREOF FOR DECREASING THE PLANT NITRATE CONTENT” (priority 2022, published 2026)
